Measurements as given in ChEMBL document CHEMBL3044907, “Sensitivity of Fusarium verticillioides isolates from rice to a novel cyanoacrylate fungicide” (Crop Prot, 2012).
In brackets after ≈: the same amount, converted by molar mass.

Assays:
Fusarium verticillioides [1] = experiment: (§1) Fungicidal activity against Fusarium verticilliodes isolate N04 in rice seeds harvested from bakane diseased plants assessed as number of seedlings abnormally elongated or exhibiting symptoms of damping-off at 12.5 ug/ml at 30 degC incubated for 72 hr measured after 3 days under greenhouse trials (reference value: 14.5%); type: functional
Fusarium verticillioides [2] = experiment: as §1, with “JS07” for “N04”, “33.8%)” for “14.5%)”; type: functional
Fusarium verticillioides [3] = experiment: as §1, with “YZ09” for “N04”, “17.5%)” for “14.5%)”; type: functional
Fusarium verticillioides [4] = experiment: as §1, with “YZ01” for “N04”, “33.6%)” for “14.5%)”; type: functional
Fusarium verticillioides [5] = experiment: as §1, with “YZ03” for “N04”, “6.25” for “12.5”, “21.3%)” for “14.5%)”; type: functional
Fusarium verticillioides [6] = experiment: as §1, with “N03” for “N04”, “25” for “12.5”, “36.1%)” for “14.5%)”; type: functional
Oryza sativa [7] = experiment: Effect on emergence of healthy Oryza sativa (rice) seedlings measured after seeds germinated; type: ADME, organism-based; details: in vivo
Fusarium verticillioides [8] = experiment: as §1, with “JS06” for “N04”, “25” for “12.5”, “25.2%)” for “14.5%)”; type: functional
Fusarium verticillioides [9] = experiment: as §1, with “JS08” for “N04”, “25” for “12.5”, “13.0%)” for “14.5%)”; type: functional
Fusarium verticillioides [10] = experiment: as §1, with “YZ01” for “N04”, “25” for “12.5”, “33.6%)” for “14.5%)”; type: functional
Fusarium verticillioides [11] = experiment: as §1, with “JS09” for “N04”, “8.33” for “12.5”, “32.6%)” for “14.5%)”; type: functional
Fusarium verticillioides [12] = experiment: as §1, with “JS02” for “N04”, “25” for “12.5”, “24.9%)” for “14.5%)”; type: functional
Fusarium verticillioides [13] = experiment: as §1, with “YZ06” for “N04”, “25” for “12.5”, “45.3%)” for “14.5%)”; type: functional
Fusarium verticillioides [14] = experiment: as §1, with “N05” for “N04”, “25” for “12.5”, “6.2%)” for “14.5%)”; type: functional
Fusarium verticillioides [15] = experiment: as §1, with “8.33” for “12.5”; type: functional
Fusarium verticillioides [16] = experiment: as §1, with “YZ11” for “N04”, “33.7%)” for “14.5%)”; type: functional
Fusarium verticillioides [17] = experiment: as §1, with “YZ03” for “N04”, “25” for “12.5”, “21.3%)” for “14.5%)”; type: functional
Fusarium verticillioides [18] = experiment: as §1, with “YZ26” for “N04”, “6.25” for “12.5”, “49.3%)” for “14.5%)”; type: functional
Fusarium verticillioides [19] = experiment: as §1, with “YZ13” for “N04”, “26.8%)” for “14.5%)”; type: functional
Fusarium verticillioides [20] = experiment: Fungicidal activity against Fusarium verticilliodes assessed as mycelial growth inhibition at 25 degC after 3 to 5 days; type: functional, organism-based
Fusarium verticillioides [21] = experiment: as §1, with “JS01” for “N04”, “6.25” for “12.5”, “32.5%)” for “14.5%)”; type: functional
Fusarium verticillioides [22] = experiment: as §1, with “YZ08” for “N04”, “19.8%)” for “14.5%)”; type: functional
Oryza sativa [23] = experiment: Effect on germination of healthy Oryza sativa (rice) seed cultivar Fengliangyou 4 at 6.25 to 25 ug/ml at 25 degC after 72 hr; type: ADME, organism-based; details: in vivo
Fusarium verticillioides [24] = experiment: as §1, with “YZ06” for “N04”, “6.25” for “12.5”, “45.3%)” for “14.5%)”; type: functional
Fusarium verticillioides [25] = experiment: as §1, with “YZ22” for “N04”, “6.25” for “12.5”, “22.5%)” for “14.5%)”; type: functional
Fusarium verticillioides [26] = experiment: as §1, with “YZ10” for “N04”, “25” for “12.5”, “49.2%)” for “14.5%)”; type: functional
Fusarium verticillioides [27] = experiment: as §1, with “YZ06” for “N04”, “45.3%)” for “14.5%)”; type: functional
Fusarium verticillioides [28] = experiment: as §1, with “JS03” for “N04”, “6.25” for “12.5”, “15.8%)” for “14.5%)”; type: functional
Fusarium verticillioides [29] = experiment: as §1, with “YZ06” for “N04”, “8.33” for “12.5”, “45.3%)” for “14.5%)”; type: functional
Fusarium verticillioides [30] = experiment: as §1, with “YZ09” for “N04”, “6.25” for “12.5”, “17.5%)” for “14.5%)”; type: functional
Fusarium verticillioides [31] = experiment: as §1, with “YZ10” for “N04”, “6.25” for “12.5”, “49.2%)” for “14.5%)”; type: functional
Fusarium verticillioides [32] = experiment: as §1, with “JS08” for “N04”, “6.25” for “12.5”, “13.0%)” for “14.5%)”; type: functional
Fusarium verticillioides [33] = experiment: as §1, with “YZ05” for “N04”, “33.3%)” for “14.5%)”; type: functional
Fusarium verticillioides [34] = experiment: as §1, with “YZ03” for “N04”, “21.3%)” for “14.5%)”; type: functional

SMILES: CCOC(=O)/C(C#N)=C(/N)c1ccccc1
- Activity (Fusarium verticillioides [1]): 0%
- Activity (Fusarium verticillioides [2]): 0%
- Activity (Fusarium verticillioides [3]): 0%
- Activity (Fusarium verticillioides [4]): 0%
- Activity (Fusarium verticillioides [5]): 2%
- Activity (Fusarium verticillioides [6]): 0%
- Activity (Oryza sativa [7]): Non-toxic
- Activity (Fusarium verticillioides [8]): 0%
- Activity (Fusarium verticillioides [9]): 0%
- Activity (Fusarium verticillioides [10]): 0%
- Activity (Fusarium verticillioides [11]): 1.2%
- Activity (Fusarium verticillioides [12]): 0%
- Activity (Fusarium verticillioides [13]): 0%
- Activity (Fusarium verticillioides [14]): 0%
- Activity (Fusarium verticillioides [15]): 0%
- Activity (Fusarium verticillioides [16]): 0%
- Activity (Fusarium verticillioides [17]): 0%
- Activity (Fusarium verticillioides [18]): 4.1%
- Activity (Fusarium verticillioides [19]): 0%
- EC50 (Fusarium verticillioides [20]): 0.316 µg/mL (≈ 1.46 µM)
- Activity (Fusarium verticillioides [21]): 1.6%
- Activity (Fusarium verticillioides [22]): 0%
- Activity (Oryza sativa [23]): Non-toxic
- Activity (Fusarium verticillioides [24]): 1%
- Activity (Fusarium verticillioides [25]): 2.7%
- Activity (Fusarium verticillioides [26]): 0%
- Activity (Fusarium verticillioides [27]): 0%
- Activity (Fusarium verticillioides [28]): 1.4%
- Activity (Fusarium verticillioides [29]): 0%
- Activity (Fusarium verticillioides [30]): 2.8%
- Activity (Fusarium verticillioides [31]): 3.8%
- Activity (Fusarium verticillioides [32]): 3.6%
- Activity (Fusarium verticillioides [33]): 0%
- Activity (Fusarium verticillioides [34]): 0%
